The record followed here is patent US9908919B2, “Cyclic apelin derivatives for the treatment of heart failure” (priority 2013, dated 2018).

The nature of one data set: in vitro. As to conditions: rat, plasma.
Data set [1] in a line: Plasma stability assay (LC-MS). In kind it is in vitro ADME. As to conditions: male, Sprague-Dawley; Table 3; heparinized rat plasma, 37° C., LC-MS percent remaining; read-out: Plasma stability t½. How it is done: Working solution: 1 mg/mL test article is prepared in Milli-Q water
Extraction solution: Methanol:Acetonitrile:Water (1:1:1) with 0.1% Formic Acid and 400 ng/mL Glyburide.
Plasma: Male Sprague-Dawley rat plasma (with sodium heparin), purchased from Bioreclamation LLC (Liverpool, N.Y.).
Test article was prepared in one of the following biological matrices: heparinized rat plasma, heparinized rat whole blood or lung homogenate. The plasma and whole blood sample was prepared at 5000 ng/mL by adding 5 uL of 1 mg/mL Working solution to 995 uL of rat plasma or whole blood. Lung homogenate samples were prepared by diluting lung homogenate to 1 mg/ml protein concentration with phosphate buffered saline (PBS), followed by addition of 5 uL Working solution to 995 uL diluted lung homogenate. The samples were incubated at 37° C. with gentle shaking (65˜75 rpm) in a water bath incubator. At times 0 min, 5 min, 15 min, 30 min, 60 min, 120 and 240 min, 25 uL aliquots of incubation samples were transferred to 96-well plate and immediately protein precipitated using 150 uL of Extraction solution. After completion of incubation experiment, the sample plate was centrifuged at 4000 rpm at 4° C. for 10 minutes. Afterwards, a pipetting device (Tecan Temo) was used to transfer the supernatants to another plate and add 50 uL of water to all samples. The plate was vortexed prior to LC-MS analysis. […]

For data set [2] the following is noted: rat.
Protocol: (§1) The calcium flux protocol described above was followed, with the following changes. The peptides were also incubated with 5% rat plasma (Bioreclamation # [sequence]-M, Na Heparin-treated). Readings were taken at time points t0 and t24 hrs, after incubation in a 37° C. tissue culture incubator. Peptide plasma half-life in minutes was estimated by calculating the following: • 1) LN((EC50 at t0)/(EC50 at t24 hrs)), • 2) Calculate slope of value above and • 3) t112=0.693/(slope^2).

Where a SMILES comes first, the peptide text is derived from it.

Protocol for in vitro: as §1

With `CCCC[C@@H]1NC(=O)[C@@H]2CCCN2C(=O)CNC(=O)[C@H](CCCCN)NC(=O)[C@H](Cc2c[nH]cn2)NC(=O)[C@@H](NC(=O)[C@H](CC(C)C)NC(=O)[C@H](CCCNC(=N)N)NC(=O)[C@@H]2CCCN2C(=O)[C@H](CCCNC(=N)N)NC(=O)[C@@H]2CCC(=O)N2)CSSC[C@@H](C(=O)O)NC(=O)[C@@H]2CCCN2C1=O` [Example 8, pE-R-P-R-L-C*-H-K-G-P-Nle-P-C*-OH] (HELM PEPTIDE1{[Glp].R.P.R.L.C.H.K.G.P.[Nle].P.C}$PEPTIDE1,PEPTIDE1,6:R3-13:R3$$$V2.0), the half-life in the data set “in vitro” was greater than 16.7 h. Also, in data set [1], the half-life at 5000 ng/mL came out at 2.42 h. In addition, in data set [2], the “Surrogate Activity based Plasma stability t½” value was greater than 16.67 h.
